Test results taken from patent publication US20230279024A1, “TRIAZINE COMPOUND AND COMPOSITION AND USE THEREOF” (BEIJING FINDCURE BIOSCIENCES, LTD., priority 2020, published 2023).

Experiments:
Ba/F3 AXL cells = assay: Cell activity test: growth inhibition of Ba/F3 AXL cell line (CTG, 72 h); assay type: cell-based; settings: Mus musculus, BaF3
Method: This experiment was conducted by detecting the inhibitory effect of compounds on the growth of Ba/F3 AXL cell line and Ba/F3 parental cell line. Cells in logarithmic growth stage were harvested and counted by platelet counter. Trypan blue rejection method was used to detect cell viability to ensure that the cell viability was above 90%. Adjust cell concentration; 90 μL cell suspension was added to 96-well plates, respectively; Cells in 96-well plates were cultured overnight at 37° C., 5% CO2 and 95% humidity. A 10-fold drug solution was prepared, with the highest concentration of 10 μM, and a total of 9 concentrations were diluted at 3.16 times the ratio. 10 μL drug solution was added to each well of the 96-well plate inoculated with cells, and three wells were set for each drug concentration; 96-well plates were incubated at 37° C., 5% CO2 and 95% humidity for 72 h, and CTG analysis was performed. Thaw the CTG reagent and balance the cell plates to room temperature for 30 minutes. Add the same volume of CTG solution to each well and vibrate on a fixed-rail shaker for 5 minutes to crack the cells. Place the cell plates at room temperature for 20 minutes to stabilize the cold light signal and read the cold light value. The GraphPad Prism 5.0 software was used to analyze the data, and the nonlinear S-curve regression was used to fit the data to obtain the dose-effect curve, and the IC50 value was calculated accordingly. Cell survival rate (%)=(Lum drug to be tested −Lum culture medium control)/(Lum cell control−Lum culture medium control)×100%.

AXL (h) kinase = AXL (h) kinase (Homo sapiens (Human), UniProt P30530); assay: AXL (h) kinase activity test (EZ Reader mobility shift, FLPeptide30); assay type: biochemical; settings: ATP 100 μM, AXL 1 nM
Method: The effect of the disclosed compounds as protein kinase inhibitors can be evaluated by the following experiments. The AXL (h) kinase activity of the compounds of the invention is tested by the following methods:
Reagents used in the experiment were AXL (Carna Bioscience, Cat No.: 08-107) and FLPeptide30 (PerkinElmer, Cat No.: 760430). The instruments involved were thermotank (Thermo Scientific), oscillator (QILINBEIER), EZ Reader (PerkinElmer, Cat No.: 122919), Non-contact stage pipetting system (Labcyte Inc., Cat No.: Echo 550), and non-contact nanoliter pipetting system (TECAN, Cat No.: EVO200).
Compound dilution: 1) Dissolve the compound in DMSO to the appropriate concentration; 2) Using TECAN EVO200 to dilute 10 concentrations in 384 microplates by three times gradient, the highest concentration is 1 mM; Echo550 was used to transfer 20 nL solution from the dilution plate to the test plate.
2) Add 15 μL solution 1 to each well of the test plate and incubate at room temperature for 30 minutes.
4) Add 5 μL solution 2 to start the reaction, and the final volume of each well is 20 μL.
5) Incubated at 25° C. for 90 min, and then added 75 μL stop solution (containing 0.5 M EDTA) to terminate the reaction.
6) The sample of each well was analyzed using EZ reader.
1) Based on the measured conversion rate (CR), the Remaining Activity (%) of the kinase was calculated according to the following function:
2) XLFit (Equation 201) software was used to fit IC50.
The above methods can be used to obtain the inhibitory IC50 and/or inhibitory constant Ki.

Sequence of AXL (h) kinase (P30530 473-894): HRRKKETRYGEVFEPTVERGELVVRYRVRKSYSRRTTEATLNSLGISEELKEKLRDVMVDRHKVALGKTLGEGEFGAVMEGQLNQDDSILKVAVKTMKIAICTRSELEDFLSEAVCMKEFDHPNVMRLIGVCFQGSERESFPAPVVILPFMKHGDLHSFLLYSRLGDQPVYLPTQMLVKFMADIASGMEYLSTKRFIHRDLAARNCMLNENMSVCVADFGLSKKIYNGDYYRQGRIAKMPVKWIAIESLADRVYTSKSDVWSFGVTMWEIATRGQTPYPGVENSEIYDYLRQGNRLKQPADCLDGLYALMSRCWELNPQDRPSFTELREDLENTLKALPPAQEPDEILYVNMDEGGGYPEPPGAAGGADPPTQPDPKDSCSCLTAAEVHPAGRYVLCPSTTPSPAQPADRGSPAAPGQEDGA

| Structure (SMILES) | IC50 (Ba/F3 AXL cells) | IC50 (AXL (h) kinase) |
| --- | --- | --- |
| Nc1ncnn2c(C3CCNCC3)cc(-c3ccc(NC(=O)c4c5n(n(-c6ccccc6)c4=O)CCOC5)cc3)c12 [example 2, N-(4-(4-amino-7-(piperidin-4-yl)pyrrolo[2,1-f][1,2,4]triazin-5-yl)phenyl)-2-oxo-1-phenyl-2,4,6,7-tetrahydro-1H-pyrazolo[5,1-c][1,4]oxazine-3-carboxamide] | 50 to 100 nM | > 100 nM |
| CC(C)C(=O)N1CCC(c2cc(-c3ccc(NC(=O)c4c5n(n(-c6ccccc6)c4=O)CCC5)cc3)c3c(N)ncnn23)CC1 [example 6, N-(4-(4-amino-7-(1-isobutyrylpiperidin-4-yl)pyrrolo[2,1-f][1,2,4]triazin-5-yl)phenyl)-2-oxo-1-phenyl-2,4,5,6-tetrahydro-1H-pyrrolo[1,2-b]pyrazole-3-carboxamide] | < 5 nM |  |
| CC(C)C(=O)N1CCC(c2cc(-c3ccc(NC(=O)c4c5n(n(-c6ccccn6)c4=O)CCOC5)cc3F)c3c(N)ncnn23)CC1 [example 9, N-(4-(4-amino-7-(1-isobutyrylpiperidin-4-yl)pyrrolo[2,1-f][1,2,4]triazin-5-yl)-3-fluorophenyl)-2-oxo-1-(pyridin-2-yl)-2,4,6,7-tetrahydro-1H-pyrazolo[5,1-c][1,4]oxazine-3-carboxamide] | 5 to 50 nM | 5 to 50 nM |
| CC(C)(O)C(=O)N1CCC(c2cc(-c3ccc(NC(=O)c4c5n(n(-c6ccccn6)c4=O)CCOC5)cc3F)c3c(N)ncnn23)CC1 [example 14, N-(4-(4-amino-7-(1-(2-hydroxy-2-methylpropanoyl)piperidin-4-yl)pyrrolo[2,1-f][1,2,4]triazin-5-yl)-3-fluorophenyl)-2-oxo-1-(pyridin-2-yl)-2,4,6,7-tetrahydro-1H-pyrazolo[5,1-c][1,4]oxazine-3-carboxamide] | 5 to 50 nM | 50 to 100 nM |
| CC(C)C(=O)N1CCC(c2cc(-c3ccc(NC(=O)c4c5n(n(-c6ccccn6)c4=O)CCCC5)cc3F)c3c(N)ncnn23)CC1 [example 17, N-(4-(4-amino-7-(1-isobutyrylpiperidin-4-yl)pyrrolo[2,1-f][1,2,4]triazin-5-yl)-3-fluorophenyl)-2-oxo-1-(pyridin-2-yl)-1,2,4,5,6,7-hexahydropyrazolo[1,5-a]pyridine-3-carboxamide] | 5 to 50 nM |  |
| Nc1ncnn2c(C3CCC(O)CC3)cc(-c3ccc(NC(=O)c4c5n(n(-c6ccccc6)c4=O)CCOC5)nc3)c12 (stereo not drawn) [example 23] | < 5 nM |  |
| Nc1ncnn2c1c(-c1ccc(NC(=O)c3c4n(n(-c5ccccc5)c3=O)CCCC4)cc1F)cc2[C@H]1CC[C@H](O)CC1 [example 24, N-(4-(4-amino-7-((1r,4r)-4-hydroxycyclohexyl)pyrrolo[2,1-f][1,2,4]triazin-5-yl)-3-fluorophenyl)-2-oxo-1-phenyl-1,2,4,5,6,7-hexahydropyrazolo[1,5-a]pyridine-3-carboxamide] | < 5 nM |  |
| Nc1ncnn2c(C3CCN(C(=O)C4CC4)CC3)cc(-c3ccc(NC(=O)c4c5n(n(-c6ccccn6)c4=O)CCOC5)cc3F)c12 [example 28, N-(4-(4-amino-7-(1-(cyclopropanecarbonyl)piperidin-4-yl)pyrrolo[2,1-f][1,2,4]triazin-5-yl)-3-fluorophenyl)-2-oxo-1-(pyridin-2-yl)-2,4,6,7-tetrahydro-1H-pyrazolo[5,1-c][1,4]oxazine-3-carboxamide] | 5 to 50 nM |  |
| CC(C)C(=O)N1CCC(c2cc(-c3ccc(NC(=O)c4c5n(n(-c6ccccc6)c4=O)CCOC5)nc3)c3c(N)ncnn23)CC1 [example 35, N-(5-(4-amino-7-(1-isobutyrylpiperidin-4-yl)pyrrolo[2,1-f][1,2,4]triazin-5-yl)pyridin-2-yl)-2-oxo-1-phenyl-2,4,6,7-tetrahydro-1H-pyrazolo[5,1-c][1,4]oxazine-3-carboxamide] | < 5 nM |  |
| Nc1ncnn2c(C3CCN(C(=O)C4CCC4)CC3)cc(-c3ccc(NC(=O)c4c5n(n(-c6ccccn6)c4=O)CCC5)cc3)c12 [example 40] |  | > 100 nM |
| Nc1ncnn2c(C3CCN(C(=O)C4CC4)CC3)cc(-c3ccc(NC(=O)c4c5n(n(-c6ccncc6)c4=O)CCCC5)cc3)c12 [example 44] |  | 50 to 100 nM |

The next lines start with the values.

| IC50 (Ba/F3 AXL cells) | IC50 (AXL (h) kinase) | Structure (SMILES) |
| --- | --- | --- |
| > 100 nM | > 100 nM | Nc1ncnn2c(C3CCNCC3)cc(-c3ccc(NC(=O)c4c5n(n(-c6ccccc6)c4=O)CCC5)cc3)c12 [example 5, N-(4-(4-amino-7-(piperidin-4-yl)pyrrolo[2,1-f][1,2,4]triazin-5-yl)phenyl)-2-oxo-1-phenyl-2,4,5,6-tetrahydro-1H-pyrrolo[1,2-b]pyrazole-3-carboxamide] |
| 5 to 50 nM |  | CC(C)(F)C(=O)N1CCC(c2cc(-c3ccc(NC(=O)c4c5n(n(-c6ccccn6)c4=O)CCOC5)cc3)c3c(N)ncnn23)CC1 [example 12, N-(4-(4-amino-7-(1-(2-fluoro-2-methylpropanoyl)piperidin-4-yl)pyrrolo[2,1-f][1,2,4]triazin-5-yl)phenyl)-2-oxo-1-(pyridin-2-yl)-2,4,6,7-tetrahydro-1H-pyrazolo[5,1-c][1,4]oxazine-3-carboxamide] |
| 5 to 50 nM | 5 to 50 nM | CC(C)(O)C(=O)N1CCC(c2cc(-c3ccc(NC(=O)c4c5n(n(-c6ccccn6)c4=O)CCCC5)cc3)c3c(N)ncnn23)CC1 [example 13, N-(4-(4-amino-7-(1-(2-hydroxy-2-methylpropanoyl)piperidin-4-yl)pyrrolo[2,1-f][1,2,4]triazin-5-yl)phenyl)-2-oxo-1-(pyridin-2-yl)-1,2,4,5,6,7-hexahydropyrazolo[1,5-a]pyridine-3-carboxamide] |
| 5 to 50 nM | 5 to 50 nM | CC(C)(O)C(=O)N1CCC(c2cc(-c3ccc(NC(=O)c4c5n(n(-c6ccccn6)c4=O)CCOC5)cc3)c3c(N)ncnn23)CC1 [example 15, N-(4-(4-amino-7-(1-(2-hydroxy-2-methylpropanoyl)piperidin-4-yl)pyrrolo[2,1-f][1,2,4]triazin-5-yl)phenyl)-2-oxo-1-(pyridin-2-yl)-2,4,6,7-tetrahydro-1H-pyrazolo[5,1-c][1,4]oxazine-3-carboxamide] |
| 5 to 50 nM | 5 to 50 nM | CC(C)C(=O)N1CCC(c2cc(-c3ccc(NC(=O)c4c5n(n(-c6ccccn6)c4=O)CCCC5)cc3)c3c(N)ncnn23)CC1 [example 18, N-(4-(4-amino-7-(1-isobutyrylpiperidin-4-yl)pyrrolo[2,1-f][1,2,4]triazin-5-yl)phenyl)-2-oxo-1-(pyridin-2-yl)-1,2,4,5,6,7-hexahydropyrazolo[1,5-a]pyridine-3-carboxamide] |
| 5 to 50 nM |  | Nc1ncnn2c(C3CCC(O)CC3)cc(-c3ccc(NC(=O)c4c5n(n(-c6ccccn6)c4=O)CCOC5)cc3)c12 (stereo not drawn) [example 32, N-(4-(4-amino-7-((1r,4r)-4-hydroxycyclohexyl)pyrrolo[2,1-f][1,2,4]triazin-5-yl)phenyl)-2-oxo-1-(pyridin-2-yl)-2,4,6,7-tetrahydro-1H-pyrazolo[5,1-c][1,4]oxazine-3-carboxamide] |
|  | < 5 nM | Nc1ncnn2c1c(-c1ccc(NC(=O)c3c4n(n(-c5ccccn5)c3=O)CCOC4)cc1)cc2[C@H]1CC[C@H](O)CC1 [example 32, N-(4-(4-amino-7-((1r,4r)-4-hydroxycyclohexyl)pyrrolo[2,1-f][1,2,4]triazin-5-yl)phenyl)-2-oxo-1-(pyridin-2-yl)-2,4,6,7-tetrahydro-1H-pyrazolo[5,1-c][1,4]oxazine-3-carboxamide] |
|  | 5 to 50 nM | [2H][C@]1(O)CC[C@H](c2cc(-c3ccc(NC(=O)c4c5n(n(-c6ccccc6)c4=O)CCOC5)cc3F)c3c(N)ncnn32)CC1 [example 33, N-(4-(4-amino-7-((1r,4r)-4-hydroxycyclohexyl-4-d)pyrrolo[2,1-f][1,2,4]triazin-5-yl)-3-fluorophenyl)-2-oxo-1-phenyl-2,4,6,7-tetrahydro-1H-pyrazolo[5,1-c][1,4]oxazine-3-carboxamide] |
|  | 5 to 50 nM | CC(C)(F)C(=O)N1CCC(c2cc(-c3ccc(NC(=O)c4c5n(n(-c6cccnn6)c4=O)CCCC5)cc3)c3c(N)ncnn23)CC1 [example 52] |
